Like-named read-outs stand apart in the source and are kept apart here. Values belong to the compound of their own block, whether it stands above or below them.
Legend:
HDAC2 [1] = target: T1, HDAC2 (Homo sapiens (Human), UniProt Q92769); test: Caliper HDAC enzymatic endpoint assay, HDAC2; assay type: biochemical
[2] = tested on: HDACs 1, 2, 3, 4, 5, 6, 7, 8, and 9; test: HDAC selectivity panel (Caliper), isoform selectivity; conditions: from IC50 values
HDAC1 [3] = target: T2, HDAC1 (Homo sapiens (Human), UniProt Q13547); test: Caliper HDAC enzymatic endpoint assay, HDAC1; assay type: biochemical
T2 sequence (Q13547 whole entry): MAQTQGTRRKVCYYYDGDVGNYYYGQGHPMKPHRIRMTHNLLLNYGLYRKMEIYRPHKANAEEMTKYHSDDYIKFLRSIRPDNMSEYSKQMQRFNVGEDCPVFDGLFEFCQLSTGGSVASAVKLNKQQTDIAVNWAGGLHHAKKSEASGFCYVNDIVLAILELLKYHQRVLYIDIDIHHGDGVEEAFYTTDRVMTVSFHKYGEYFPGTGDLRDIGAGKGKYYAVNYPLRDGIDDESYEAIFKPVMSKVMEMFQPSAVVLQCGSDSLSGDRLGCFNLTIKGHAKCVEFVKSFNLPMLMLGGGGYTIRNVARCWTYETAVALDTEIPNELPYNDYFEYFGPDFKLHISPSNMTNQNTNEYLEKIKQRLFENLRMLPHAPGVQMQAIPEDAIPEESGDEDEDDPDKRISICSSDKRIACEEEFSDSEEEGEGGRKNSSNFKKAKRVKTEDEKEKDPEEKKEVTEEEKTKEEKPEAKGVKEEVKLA

HDAC3 [4] = target: T3, HDAC3 (Homo sapiens (Human), UniProt O15379); test: Caliper HDAC enzymatic endpoint assay, HDAC3; assay type: biochemical
T3 sequence (O15379 whole entry): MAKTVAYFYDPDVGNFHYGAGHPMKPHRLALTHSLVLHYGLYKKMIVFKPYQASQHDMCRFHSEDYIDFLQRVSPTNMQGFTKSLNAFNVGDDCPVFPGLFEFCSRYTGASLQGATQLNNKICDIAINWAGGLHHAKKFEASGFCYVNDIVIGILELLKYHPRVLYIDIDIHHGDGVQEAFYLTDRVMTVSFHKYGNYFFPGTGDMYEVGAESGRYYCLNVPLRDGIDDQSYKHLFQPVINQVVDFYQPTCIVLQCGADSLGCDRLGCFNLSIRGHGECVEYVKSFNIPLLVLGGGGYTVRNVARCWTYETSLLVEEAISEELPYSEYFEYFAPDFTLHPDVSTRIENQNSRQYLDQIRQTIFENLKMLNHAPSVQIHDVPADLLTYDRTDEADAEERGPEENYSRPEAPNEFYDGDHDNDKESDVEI
T3 sequence (Q9Y618 395-489 partner): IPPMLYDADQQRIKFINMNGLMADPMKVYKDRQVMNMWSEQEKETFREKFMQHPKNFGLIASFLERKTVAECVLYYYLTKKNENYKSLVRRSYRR

HDAC6 = HDAC6 (Homo sapiens (Human), UniProt Q9UBN7); test: Caliper HDAC enzymatic endpoint assay, HDAC6; assay type: biochemical; conditions: Table 2C; read-out: HDAC6 IC50 after 0 hr preincubation
INS-1E cells = test: Cytokine-induced beta-cell apoptosis, caspase-3 activity assay; assay type: cell-based, rat; conditions: IL-1β, IFN-γ, TNF-α, 48 hours, 5 μM compound
Experimental: Compounds of the invention were evaluated for their ability to suppress cytokine-induced beta-cell apoptosis and palmitate and/or glucose-induced beta-cell apoptosis by inhibition of HDAC3. Assay protocols were as follows: Cell culture and reagents. […] Recombinant IL-1β, IFN-γ, and TNF-α were purchased from R&D Systems. Palmitate, D-glucose and fatty acids-free low endotoxin BSA were purchased from Sigma. Palmitate was solubilized in 90% ethanol, heated to 60° C. and used 1:100 dilution in media. Caspase-Glo 3/7 was from Promega and 3-(4,5-dimethylthiazol-2-yl)-2,5-diphenyltetrazolium bromide (MTT) was from Calbiochem. Antibodies for HDAC1, HDAC2, HDAC3, pJNK, JNK cleaved caspase-9 and secondary horseradish-peroxidase conjugated goat anti-mouse and anti-rabbit antibodies were from Cell Signaling. Antibody for beta-actin was from Sigma and antibody against CHOP (GADD153) from Abcam. HDAC inhibitors were purchased from Selleck Chemicals or synthesized in-house. Primers were from Integrated DNA Technologies, High Capacity cDNA RT kit and SYBR green master mix were purchased from Applied Biosystems. INS-1E cells were seeded at 5,000 cells/well using a Multidrop Combi (Thermo Labsystems) in white optical 384-well plates (Corning Life Sciences). After overnight incubation, medium was removed and 50 μL RPMI containing the treated compound, 1% FBS and either a combination of cytokines (10 ng/mL IL-1β, 50 ng/mL IFN-γ, 25 ng/mL TNF-α) or 0.5 mM sodium palmitate was added to every well. After two-day treatment, medium was removed and 20 μL Caspase-Glo 3/7 reagent was added. Luminescence was measured after a two-hour incubation using an Envision plate reader (PerkinElmer). […] The rat INS-1E cell line was simultaneously treated for 48 hours with a combination of pro-inflammatory cytokines IL-1β, IFN-γ, and TNF-α, and the indicated test compounds. […] Compound 9, a negative control, had no effect. […] FIGS. 9C and 9D show a dose-response analysis of HDAC inhibition in suppression of cytokine-induced beta-cell apoptosis. […] This could translate to a larger therapeutic window. […]

HDAC7 = HDAC7 (Homo sapiens (Human), UniProt Q8WUI4); test: Caliper HDAC enzymatic endpoint assay, HDAC7; assay type: biochemical; conditions: Table 2C; read-out: HDAC7 IC50 after 0 hr preincubation
HDAC7, sequence (Q8WUI4 whole entry): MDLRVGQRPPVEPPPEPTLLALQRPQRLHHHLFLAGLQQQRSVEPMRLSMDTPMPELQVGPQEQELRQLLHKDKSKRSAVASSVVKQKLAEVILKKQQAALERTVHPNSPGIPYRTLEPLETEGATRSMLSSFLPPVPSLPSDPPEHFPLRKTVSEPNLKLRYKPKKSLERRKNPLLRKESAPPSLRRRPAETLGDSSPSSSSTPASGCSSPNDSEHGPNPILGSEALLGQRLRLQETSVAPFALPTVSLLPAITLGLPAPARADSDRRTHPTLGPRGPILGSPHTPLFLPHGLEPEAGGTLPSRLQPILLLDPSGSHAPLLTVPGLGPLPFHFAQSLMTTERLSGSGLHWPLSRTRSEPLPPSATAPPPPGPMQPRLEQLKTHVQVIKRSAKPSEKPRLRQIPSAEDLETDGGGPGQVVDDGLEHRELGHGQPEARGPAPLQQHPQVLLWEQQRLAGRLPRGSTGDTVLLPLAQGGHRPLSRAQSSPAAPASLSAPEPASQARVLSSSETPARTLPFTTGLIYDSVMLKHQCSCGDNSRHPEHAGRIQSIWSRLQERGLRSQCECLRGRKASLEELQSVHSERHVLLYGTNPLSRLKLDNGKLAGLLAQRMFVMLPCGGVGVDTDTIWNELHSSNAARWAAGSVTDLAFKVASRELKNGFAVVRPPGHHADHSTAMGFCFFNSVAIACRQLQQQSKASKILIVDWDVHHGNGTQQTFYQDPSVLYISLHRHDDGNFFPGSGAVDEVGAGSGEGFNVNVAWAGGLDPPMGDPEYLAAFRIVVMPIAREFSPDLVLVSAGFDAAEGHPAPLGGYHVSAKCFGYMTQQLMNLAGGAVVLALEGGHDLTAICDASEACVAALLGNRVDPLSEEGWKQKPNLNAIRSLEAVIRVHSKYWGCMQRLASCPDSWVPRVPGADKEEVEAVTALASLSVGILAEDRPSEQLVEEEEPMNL

HDAC9 = HDAC9 (Homo sapiens (Human), UniProt Q9UKV0); test: Caliper HDAC enzymatic endpoint assay, HDAC9; assay type: biochemical; conditions: Table 2C; read-out: HDAC9 IC50 after 0 hr preincubation
HDAC9, sequence (Q9UKV0 whole entry): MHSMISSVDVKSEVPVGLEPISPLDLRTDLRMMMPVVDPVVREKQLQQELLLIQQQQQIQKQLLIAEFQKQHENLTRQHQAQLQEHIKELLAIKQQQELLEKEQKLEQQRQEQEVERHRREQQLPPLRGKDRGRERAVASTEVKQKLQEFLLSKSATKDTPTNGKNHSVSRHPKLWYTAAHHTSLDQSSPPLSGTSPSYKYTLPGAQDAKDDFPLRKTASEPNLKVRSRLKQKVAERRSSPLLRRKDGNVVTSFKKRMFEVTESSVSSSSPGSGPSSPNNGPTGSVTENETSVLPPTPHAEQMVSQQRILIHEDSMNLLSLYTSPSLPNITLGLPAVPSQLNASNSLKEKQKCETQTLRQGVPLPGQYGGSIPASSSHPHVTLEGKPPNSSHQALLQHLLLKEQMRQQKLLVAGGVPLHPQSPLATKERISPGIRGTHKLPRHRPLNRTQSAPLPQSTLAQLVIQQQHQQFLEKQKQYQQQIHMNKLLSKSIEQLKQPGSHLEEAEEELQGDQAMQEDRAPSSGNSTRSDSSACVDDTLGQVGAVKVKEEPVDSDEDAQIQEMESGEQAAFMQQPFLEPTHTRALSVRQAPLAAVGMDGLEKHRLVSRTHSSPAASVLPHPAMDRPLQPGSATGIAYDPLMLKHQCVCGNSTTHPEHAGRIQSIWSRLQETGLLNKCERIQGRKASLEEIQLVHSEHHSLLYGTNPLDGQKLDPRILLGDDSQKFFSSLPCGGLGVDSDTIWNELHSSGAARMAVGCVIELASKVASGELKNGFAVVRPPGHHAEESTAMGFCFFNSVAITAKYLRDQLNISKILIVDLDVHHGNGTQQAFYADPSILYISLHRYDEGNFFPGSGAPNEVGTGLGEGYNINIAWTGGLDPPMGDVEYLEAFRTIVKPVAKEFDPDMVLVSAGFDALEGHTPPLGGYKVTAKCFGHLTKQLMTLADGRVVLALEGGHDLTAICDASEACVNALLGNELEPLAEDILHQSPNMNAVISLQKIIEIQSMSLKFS

HDAC8 = HDAC8 (Homo sapiens (Human), UniProt Q9BY41); test: Caliper HDAC enzymatic endpoint assay, HDAC8; assay type: biochemical; conditions: Table 2C; read-out: HDAC8 IC50 after 0 hr preincubation
HDAC8, sequence (Q9BY41 whole entry): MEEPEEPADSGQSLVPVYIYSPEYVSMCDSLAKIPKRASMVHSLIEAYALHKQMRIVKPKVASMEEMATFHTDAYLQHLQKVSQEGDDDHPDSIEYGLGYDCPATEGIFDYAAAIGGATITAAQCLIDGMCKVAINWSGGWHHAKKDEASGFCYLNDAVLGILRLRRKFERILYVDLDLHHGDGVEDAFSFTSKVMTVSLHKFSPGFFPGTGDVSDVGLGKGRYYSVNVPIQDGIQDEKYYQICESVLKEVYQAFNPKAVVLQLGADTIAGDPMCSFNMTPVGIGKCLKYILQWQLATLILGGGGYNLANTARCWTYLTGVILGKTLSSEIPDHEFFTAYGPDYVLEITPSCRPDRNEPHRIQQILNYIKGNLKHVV

HDAC4 = HDAC4 (Homo sapiens (Human), UniProt P56524); test: Caliper HDAC enzymatic endpoint assay, HDAC4; assay type: biochemical; conditions: Table 2C; read-out: HDAC4 IC50 after 0 hr preincubation
[5] = tested on: human megakaryocyte progenitors; test: Growth of human megakaryocyte progenitors (surrogate assay for platelet depletion); assay type: cell-based; conditions: for toxicity to human megakaryocyte progenitors at higher concentrations: particularly at 10 μM and 20 μM
Experimental: Compounds of the invention were evaluated for their effect on the growth of human megakaryocyte progenitors (surrogate assay for platelet depletion). Human CD34+ cells were grown in a collagen-based gel (Megacult-C, Stemcell Technologies). […] 100% indicates no difference in cell viability relative to the DMSO treated cells. […] This is the desired effect.

HDAC5 = HDAC5 (Homo sapiens (Human), UniProt Q9UQL6); test: Caliper HDAC enzymatic endpoint assay, HDAC5; assay type: biochemical; conditions: Table 2C; read-out: HDAC5 IC50 after 0 hr preincubation
HDAC5, sequence (Q9UQL6 whole entry): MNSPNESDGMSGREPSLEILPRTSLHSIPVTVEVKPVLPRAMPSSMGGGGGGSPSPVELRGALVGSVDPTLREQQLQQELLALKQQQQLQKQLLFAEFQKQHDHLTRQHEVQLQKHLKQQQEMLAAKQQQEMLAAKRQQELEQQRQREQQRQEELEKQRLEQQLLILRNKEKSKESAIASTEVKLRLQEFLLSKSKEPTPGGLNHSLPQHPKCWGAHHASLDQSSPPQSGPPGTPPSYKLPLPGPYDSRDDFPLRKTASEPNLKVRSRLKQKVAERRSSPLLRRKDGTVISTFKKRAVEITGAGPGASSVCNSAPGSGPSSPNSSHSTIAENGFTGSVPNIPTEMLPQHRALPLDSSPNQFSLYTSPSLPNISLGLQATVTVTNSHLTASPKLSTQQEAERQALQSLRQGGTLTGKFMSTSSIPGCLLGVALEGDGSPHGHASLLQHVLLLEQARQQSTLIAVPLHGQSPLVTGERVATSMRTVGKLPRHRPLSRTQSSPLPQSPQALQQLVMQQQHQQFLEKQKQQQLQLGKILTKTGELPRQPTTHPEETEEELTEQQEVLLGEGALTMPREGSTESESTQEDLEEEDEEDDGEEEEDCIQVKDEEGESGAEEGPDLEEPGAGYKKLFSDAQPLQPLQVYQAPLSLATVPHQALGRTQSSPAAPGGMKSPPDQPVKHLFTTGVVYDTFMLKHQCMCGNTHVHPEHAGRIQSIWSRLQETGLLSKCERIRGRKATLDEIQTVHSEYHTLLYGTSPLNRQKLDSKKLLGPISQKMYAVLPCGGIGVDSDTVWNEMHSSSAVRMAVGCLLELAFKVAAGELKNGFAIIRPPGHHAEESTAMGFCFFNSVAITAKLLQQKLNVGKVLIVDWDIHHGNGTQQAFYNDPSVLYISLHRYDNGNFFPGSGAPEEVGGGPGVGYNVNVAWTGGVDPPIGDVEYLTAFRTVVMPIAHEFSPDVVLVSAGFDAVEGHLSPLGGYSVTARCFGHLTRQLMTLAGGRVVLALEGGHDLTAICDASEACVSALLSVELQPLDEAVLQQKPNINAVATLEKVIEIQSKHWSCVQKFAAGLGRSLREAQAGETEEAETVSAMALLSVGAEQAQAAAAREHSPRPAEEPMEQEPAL

[6] = Brain and plasma concentration in mice; assay type: in vivo; conditions: for half-life: mouse, other: injected (site of injection not given)
Experimental: Specifically, mice were injected with a single dose of compound and the concentration of compound was measured in the brain and plasma of mice at 8 time points. The samples were analyzed by LC-MS/MS.

HDAC3 [7] = target: T3, HDAC3; test: Kinetics of the inhibition of HDAC3
HDAC1 [8] = target: T2, HDAC1; test: Kinetics of the inhibition of HDAC1; conditions: for T1/2: HDAC1 residence
HDAC1 [9] = target: T2, HDAC1; test: Binding constant from HDAC1 inactivation kinetics; conditions: HDAC1, values marked *; read-out: Ki (binding constant derived from HDAC1 inactivation kinetics)
HDAC2 [10] = target: T1, HDAC2; test: Kinetics of the inhibition of HDAC2
HDAC2 [11] = target: T1, HDAC2
[12] = read-out: HDAC2 IC50 3 h Prein, Table 2, 3 h preincubation
[13] = read-out: HDAC1 IC50 3 h Prein, Table 2, 3 h preincubation
[14] = read-out: HDAC3 IC50 3 h Prein, Table 2, 3 h preincubation
[15] = read-out: HDAC2 IC50 3 h Preinc, Table 2A, 3 h preincubation
[16] = read-out: HDAC1 IC50 3 h Preinc, Table 2A, 3 h preincubation
[17] = read-out: HDAC3 IC50 3 h Preinc, Table 2A, 3 h preincubation
[18] = mice, single dose, Repligen 136 30 mg/kg, Compound 1 10 mg/kg

T1 sequence (Q92769 whole entry, canonical isoform): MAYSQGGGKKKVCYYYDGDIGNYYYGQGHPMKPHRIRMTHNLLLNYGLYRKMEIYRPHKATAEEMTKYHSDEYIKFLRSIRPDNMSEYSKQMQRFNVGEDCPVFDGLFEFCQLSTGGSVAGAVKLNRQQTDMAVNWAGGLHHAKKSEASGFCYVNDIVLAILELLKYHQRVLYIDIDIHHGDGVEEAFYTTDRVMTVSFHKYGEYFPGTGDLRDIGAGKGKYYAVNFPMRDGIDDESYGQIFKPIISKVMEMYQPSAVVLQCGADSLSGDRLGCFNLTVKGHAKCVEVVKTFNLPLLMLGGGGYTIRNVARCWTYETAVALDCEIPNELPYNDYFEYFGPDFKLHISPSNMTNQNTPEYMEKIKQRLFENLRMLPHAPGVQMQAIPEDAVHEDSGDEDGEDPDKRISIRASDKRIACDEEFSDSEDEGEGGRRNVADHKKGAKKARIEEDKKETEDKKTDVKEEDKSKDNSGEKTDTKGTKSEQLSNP

Compound: Nc1cc(F)ccc1NC(=O)c1ccc(F)cc1 [Compound 8, N-(2-amino-4-fluorophenyl)-4-fluorobenzamide]
IC50 (HDAC2 [1]; [12]): 11700 nM
HDAC isoform selectivity [2]: HDAC3 selective compound
IC50 (HDAC1 [3]; [13]): 8260 nM
IC50 (HDAC3 [4]; [14]): 436 nM

Compound: CC(=O)Nc1ccc(C(=O)Nc2ccc(C(F)(F)F)cc2N)cc1 [Compound 10, 4-acetamido-N-(2-amino-4-(trifluoromethyl)phenyl)benzamide]
IC50 (HDAC2 [1]; [12]): > 33000 nM
IC50 (HDAC1 [3]; [13]): > 33000 nM
IC50 (HDAC3 [4]; [14]): > 33000 nM

Compound: CC(=O)Nc1ccc(C(=O)Nc2ccc(Cl)cc2N)cc1 [Compound 2, 4-acetamido-N-(2-amino-4-chlorophenyl)benzamide]
IC50 (HDAC2 [1]; [12]): 24400 nM
IC50 (HDAC1 [3]; [13]): 4560 nM
IC50 (HDAC3 [4]; [14]): 2050 nM

Compound: Nc1cc(F)ccc1NC(=O)c1ccccc1 [Compound 7, N-(2-amino-4-fluorophenyl)benzamide]
IC50 (HDAC2 [1]; [12]): 12700 nM
HDAC isoform selectivity [2]: HDAC3 selective compound
IC50 (HDAC1 [3]; [13]): 7950 nM
IC50 (HDAC3 [4]; [14]): 418 nM

Compound: CC(=O)Nc1ccc(C(=O)Nc2ccccc2N)c(F)c1 [Compound 12, 4-acetamido-N-(2-aminophenyl)-2-fluorobenzamide]
IC50 (HDAC2 [1]; [12]): 304 nM
IC50 (HDAC1 [3]; [13]): 90 nM
IC50 (HDAC3 [4]; [14]): 84 nM

Compound: CC(=O)Nc1ccc(C(=O)Nc2ccc(C)cc2N)cc1 [Compound 9, 4-acetamido-N-(2-amino-4-methylphenyl)benzamide]
IC50 (HDAC6): > 33000 nM
suppression of cytokine-induced beta-cell apoptosis (caspase activity) (INS-1E cells): no effect
IC50 (HDAC2 [1]; [12]): > 33000 nM
IC50 (HDAC7): > 33000 nM
IC50 (HDAC1 [3]; [13]): > 33000 nM
IC50 (HDAC9): > 33000 nM
IC50 (HDAC8): > 33000 nM
IC50 (HDAC3 [4]; [14]): > 33000 nM
IC50 (HDAC4): > 33000 nM
effect on growth and viability of human megakaryocyte progenitor cells ([5]; 0.1, 1, 10 and 20 μM, relative to DMSO treated cells): no significant effect on growth and viability
IC50 (HDAC5): > 33000 nM

Compound: Cc1ccc(C(=O)NCCCCCC(=O)Nc2ccc(F)cc2N)cc1 [Repligen 136, N-(6-(2-amino-4-fluorophenylamino)-6-oxohexyl)-4-methylbenzamide, reference compound]
AUC Brain [6, 18]: 0.32 µM·h
Cmax Brain [6, 18]: 370 nM
concentration in the brain over time [6, 18]: not measurable after 2 hours
half-life ([6]; brain, read-out: T1/2 Brain (converted)): 0.34 h
half-life ([6]; plasma, read-out: T1/2 Plasma (converted)): 1.38 h

Compound: CC(=O)Nc1ccc(C(=O)Nc2c(N)cccc2F)cc1 [Compound 3, 4-acetamido-N-(2-amino-6-fluorophenyl)benzamide]
IC50 (HDAC2 [1]; [12]): 4930 nM
HDAC isoform selectivity [2]: HDAC3 selective compound
IC50 (HDAC1 [3]; [13]): 2180 nM
IC50 (HDAC3 [4]; [14]): 551 nM

Compound: CC(=O)Nc1ccc(C(=O)Nc2cc(F)ccc2N)cc1 [Compound 11, 4-acetamido-N-(2-amino-5-fluorophenyl)benzamide]
IC50 (HDAC2 [1]; [12]): 479 nM
IC50 (HDAC1 [3]; [13]): 153 nM
IC50 (HDAC3 [4]; [14]): 106 nM

Compound: CC(=O)Nc1ccc(C(=O)Nc2cc(Br)ccc2N)cc1 [Compound 5, 4-acetamido-N-(2-amino-5-bromophenyl)benzamide]
IC50 (HDAC2 [1]; [12]): 3540 nM
IC50 (HDAC1 [3]; [13]): 1730 nM
IC50 (HDAC3 [4]; [14]): 299 nM

Compound: CC(=O)Nc1ccc(C(=O)Nc2cccc(F)c2N)cc1 [Compound 4, 4-acetamido-N-(2-amino-3-fluorophenyl)benzamide]
IC50 (HDAC2 [1]; [12]): 4440 nM
HDAC isoform selectivity [2]: HDAC3 selective compound
IC50 (HDAC1 [3]; [13]): 2120 nM
IC50 (HDAC3 [4]; [14]): 376 nM

Compound: CC(=O)Nc1ccc(C(=O)Nc2ccc(F)cc2N)c(F)c1 [Compound 6, 4-acetamido-N-(2-amino-4-fluorophenyl)-2-fluorobenzamide]
IC50 (HDAC2 [1]; [12]): 3120 nM
HDAC isoform selectivity [2]: HDAC3 selective compound
IC50 (HDAC1 [3]; [13]): 1380 nM
IC50 (HDAC3 [4]; [14]): 80 nM

Continued, in another order:

IC50 (HDAC2 [1]; [15]): 23 nM
IC50 (HDAC1 [3]; [16]): 4 nM
IC50 (HDAC3 [4]; [17]): 22 nM
Compound: Nc1ccccc1NC(=O)c1ccc(CNC(=O)/C=C/c2cccnc2)cc1 [Cmpd 3A, reference compound]

IC50 (HDAC2 [1]; [15]): 18 nM
IC50 (HDAC1 [3]; [16]): 12 nM
IC50 (HDAC3 [4]; [17]): 17 nM
Compound: Nc1cc(F)ccc1NC(=O)c1ccc(CNc2nccc(-c3cccnc3)n2)cc1 [Cmpd 2A, reference compound]

IC50 (HDAC6): > 33000 nM
IC50 (HDAC2 [1]; read-out: HDAC2 IC50 after 3 hr preincubation, Table 2B): 19 nM
IC50 (HDAC7): > 33000 nM
IC50 (HDAC1 [3]; read-out: HDAC1 IC50 after 3 hr preincubation, Table 2B): 2 nM
IC50 (HDAC9): > 33000 nM
IC50 (HDAC8): > 33000 nM
IC50 (HDAC3 [4]; read-out: HDAC3 IC50 after 3 hr preincubation, Table 2B): 2080 nM
IC50 (HDAC4): > 33000 nM
IC50 (HDAC5): > 33000 nM
Compound: CC(=O)Nc1ccc(C(=O)Nc2cc(-c3ccncc3)ccc2N)cc1 [BRD2492, reference compound]
toxicity to human megakaryocyte progenitors at higher concentrations [5]: highly toxic

Ki (HDAC3 [7]): 93 nM
koff (HDAC3 [7]): 0.000147 s⁻¹
loss in potency for HDAC3 (Ki) compared to MS-275 (HDAC3 [7]): 8 fold
Kon (HDAC3 [7]; HDAC3): 0.093 min^−1, uM^−1
T1/2 (HDAC3 [7]; HDAC3 residence): 1.32 h
less selective than compound 1 (HDAC3 [7]; Ki selectivity HDAC3 versus HDAC1 and 2): 100 fold
binding selectivity (Ki) for HDAC3 versus HDAC1 (HDAC3 [7]; thermodynamic (Ki)): 1.7 fold
binding selectivity (Ki) for HDAC3 versus HDAC2 (HDAC3 [7]; thermodynamic (Ki)): 1.7 fold
IC50 (HDAC2 [1]; [15]): 157 nM
IC50 (HDAC2 [1]; read-out: HDAC2 IC50 @3 hr, 3 hr preincubation): 157 nM
koff (HDAC1 [8]): > 0.00333 s⁻¹
Kon (HDAC1 [8]; HDAC1): 1.000 min^−1, uM^−1
T1/2 (HDAC1 [8]): <0.067 h
IC50 (HDAC1 [3]; [16]): 120 nM
IC50 (HDAC1 [3]; read-out: HDAC1 IC50 @3 hr, 3 hr preincubation): 120 nM
KI (inactivation) (HDAC1 [9]): 160 nM
Ki (HDAC2 [10]): 160 nM
koff (HDAC2 [10]): 0.000633 s⁻¹
Kon (HDAC2 [10]; HDAC2): 0.24 min^−1, uM^−1
T1/2 (HDAC2 [10]; HDAC2 residence): 0.283 h
IC50 (HDAC3 [4]; [17]): 36 nM
IC50 (HDAC3 [4]; read-out: HDAC3 IC50 @3 hr, 3 hr preincubation): 36 nM
Compound: Nc1cc(F)ccc1NC(=O)c1ccc(CNC(=O)OCc2cccnc2)cc1 [Compound 1A, reference compound]

T1/2 (HDAC1 [8]): 1.77 h
T1/2 (HDAC2 [11]): 1.05 h
Compound: Nc1ccccc1NC(=O)c1ccc(CNC(=O)OCc2cccnc2)cc1 [MS-275, reference compound]

T1/2 (HDAC1 [8]): 1.23 h
T1/2 (HDAC2 [11]): 3.17 h
Compound: CC(=O)Nc1ccc(C(=O)Nc2ccccc2N)cc1 [CI-994, 4-(Acetylamino)-N-(2-aminophenyl)benzamide, reference compound]
effect on megakaryocyte progenitor cell growth at 1 μM ([5]; 1 μM): significant toxic effect on cell growth
toxicity to human megakaryocyte progenitors at higher concentrations [5]: highly toxic
